Test results as given in patent US4247706A, “Dibenzothiepin derivatives and a process for producing the same” (Nippon Chemiphar Co., Ltd., priority 1978, dated 1981).

Tests used:
[1] = tested on: edema in the hind paws (carrageenan); assay: Antiinflammatory effect: carrageenan-induced edema of the hind paws; type: in vivo, Male Wister rats; details: oral, rat; for Inhibition (%) (after 3 hours): 1% carrageenan edema
Procedure: Male Wister rats each weighing about 100 g, one group consisting of 5 to 7 rats, were orally given test compounds, and edema was then induced in the hind paws by a subcutaneous injection of 0.1 ml of a 1% carrageenan saline solution one hour after the administration of the test compounds. With a predetermined lapse of time, the volumes of the hind paws were measured by a volume differential meter. Indomethacin was used as an active placebo.

[2] = tested on: writhing syndromes (acetic acid); assay: Analgesic effect: acetic acid-induced writhing syndromes; type: in vivo, dd Male mice; details: oral, mouse, 0.6% acetic acid writhing within 20 minutes
Procedure: dd Male mice each weighing 18 to 22 g, one group consisting of 10 mice, were given by an intraperitoneal injection of 0.6% acetic acid in a dosage of 0.1 ml/10 g/body weight. The number of writhing syndromes occurring within 20 minutes after the injection was observed. These animals were given orally test compounds suspended in a 0.2% carboxymethylcellulose solution 30 minutes before the injection of acetic acid. The inhibitory percentage of each of the test compounds was calculated in comparison with a control in which a 0.2% carboxymethylcellulose solution only was given. Aspirin was used as an active placebo.

[3] = LD50 by the Lichfield-Wilcoxon method; details: rat, in vivo, rats
Description: This fact confirms the excellent effects of the present compounds.

O=C(O)Cc1ccc2c(c1)Sc1ccccc1C(=O)C2 [Comparative compound B]
Antiinflammatory activity (ratio to Indomethacin) [1]: 0.01
Analgesic activity (ratio to Aspirin) [2]: 1

CC(C(N)=O)c1ccc2c(c1)CC(=O)c1ccccc1S2 (centres unmarked) [Compound 1, 2-(10,11-Dihydro-10-oxodibenzo[b,f]thiepin-2-yl)-propionamide]
Inhibition (%) (after 3 hours) ([1]; 2 mg/kg): 52.5%

CC(C(=O)O)c1ccc2c(c1)CC(=O)c1ccccc1S2 (centres unmarked) [Compound 2, 2-(10,11-Dihydro-10-oxodibenzo[b,f]thiepin-2-yl)-propionic acid]
Inhibition (%) (after 3 hours) ([1]; 2 mg/kg): 55.8%
Antiinflammatory activity (ratio to Indomethacin) [1]: 2
LD50 [3]: 232 mg/kg
Analgesic activity (ratio to Aspirin) [2]: 20

COc1ccc2c(c1)c(CC(=O)O)c(C)n2C(=O)c1ccc(Cl)cc1 [Indomethacin]
Inhibition (%) (after 3 hours) ([1]; 2 mg/kg): 35.9%
Inhibition (%) (after 3 hours) ([1]; 4 mg/kg): 51.9%

O=C(O)Cc1ccc2c(c1)CC(=O)c1ccccc1S2 [Comparative compound A]
Antiinflammatory activity (ratio to Indomethacin) [1]: 0.01
Analgesic activity (ratio to Aspirin) [2]: 1
